Biological target: T1, Recombinant human mPGES-1 (Homo sapiens, UniProt O14684)
T1 construct: made in house; host or cells: CHO cells (crude microsomal fractions)
T1 sequence (O14684 1-152): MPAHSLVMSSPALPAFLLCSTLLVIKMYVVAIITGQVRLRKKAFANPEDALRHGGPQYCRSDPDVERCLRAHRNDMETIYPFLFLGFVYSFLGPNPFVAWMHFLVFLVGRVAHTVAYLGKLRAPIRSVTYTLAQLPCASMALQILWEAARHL
Assay: In-vitro screening of mPGES-1 inhibitors (inhibition of PGE2 formation from PGH2, HTRF detection)
Format: biochemical
Conditions: mPGES-1 enzyme; for inhibition at 1 µM: 1 μM test compound, read-out: Percentage inhibition at 1 μM; for inhibition at 1 µM / inhibition at 10 µM: crude microsomal fractions; for inhibition at 10 µM: 10 μM test compound, read-out: Percentage inhibition at 10 μM; for IC50: class symbols
Text: In-Vitro Protocol for Screening of mPGES-1 Inhibitors: mPGES-1 (Microsomal prostaglandin E synthase-1) is a microsomal enzyme that converts endoperoxide substrate PGH2 (prostaglandin H2) to product PGE2 (prostaglandin E2) by isomerization in the presence of reduced glutathione (GSH). mPGES-1 inhibitors were screened by assessing their ability to inhibit formation of PGE2 from PGH2 in the presence of mPGES-1 using an anti-PGE2 antibody based detection method. Recombinant human mPGES-1 was generated in-house by expression in CHO cells (Ouellet M et al. (2002), Protein Expression and Purification 26: 489-495). The assay was set up using crude microsomal fractions at a protein concentration of 40-60 μg/mL. Test compounds were prepared in 100% dimethyl sulfoxide (DMSO) to obtain 20 mM stock solution and then diluted using assay buffer comprising 0.1 M Potassium phosphate buffer with 2 mM EDTA. The final concentration of DMSO in the reaction was 0.5% (v/v). Negative controls were comprised of all assay reagents except the enzyme. Positive controls were comprised of the enzyme reaction in the absence of any inhibitor. Test compounds were incubated for 10 minutes in assay buffer containing 2.5 mM GSH and mPGES-1 enzyme followed by addition of PGH2 at a concentration of 15 μM for 1 minute. The reaction was stopped by addition of Stannous chloride (11 mg/ml) and PGE2 levels were measured ([…] et al. (2005), Journal of Biomolecular Screening 10(6) 599-605; Goedken R E et al. (2008), Journal of Biomolecular Screening 13 (7): 619-625) by HTRF kit (CisBio)). Inhibition of mPGES-1 enzyme activity was measured using the percent of reaction occurring in the positive control. Concentration response curves were plotted using percent inhibition of maximum enzyme reaction. The IC50 value was calculated from the concentration response curve by nonlinear regression analysis using GraphPad PRISM software.

| inhibition at 1 µM [%] | inhibition at 10 µM [%] | IC50 [nM] | Structure (SMILES) |
| --- | --- | --- | --- |
| 88.7 | 94.3 | < 50 | O=C(NCc1cc(-c2nn(-c3ccc(C(F)(F)F)cc3)c(=O)[nH]2)c(Cl)cc1F)[C@H]1CCCO1 [Example-119, (R)—N-(4-chloro-2-fluoro-5-(5-oxo-1-(4-(trifluoromethyl)phenyl)-4,5-dihydro-1H-1,2,4-triazol-3-yl)benzyl)tetrahydrofuran-2-carboxamide] |
| 76.2 | 87.8 | > 100 | CC1(C)CCC(n2nc(-c3cc(CNC(=O)C(C)(C)C)ccc3Cl)[nH]c2=O)CC1 [Example-118, N-(4-Chloro-3-(4,5-dihydro-1-(4,4-dimethylcyclohexyl)-5-oxo-1H-1,2,4-triazol-3-yl)benzyl)pivalamide] |
| 92 | 96.8 | > 100 | Cc1ccc(CNC(=O)C(F)(F)F)c(C)c1-c1nn(-c2ccc(C(F)(F)F)cc2)c(=O)[nH]1 [Example-106, N-(3-(1-(4-(trifluoromethyl)phenyl)-4,5-dihydro-5-oxo-1H-1,2,4-triazol-3-yl)-2,4-dimethylbenzyl)-2,2,2-trifluoroacetamide] |
| 96.8 | 98 | < 50 | CC(C)(C)C(=O)NCc1cnc(C(F)F)c(-c2nn(-c3ccc(C(F)(F)F)cc3)c(=O)[nH]2)c1 [Example-186] |
| 96.2 | 98.5 | < 50 | O=C(NCc1cnc(C(F)F)c(-c2nn(-c3ccc(C(F)(F)F)cc3)c(=O)[nH]2)c1)C1CCC1 [Example-189, N-((6-(Difluoromethyl)-5-(5-oxo-1-(4-(trifluoromethyl)phenyl)-4,5-dihydro-1H-1,2,4-triazol-3-yl)pyridin-3-yl)methyl)cyclobutanecarboxamide] |
| 95.3 | 98.5 | < 50 | O=C(NCc1ccc(Cl)c(-c2nn(-c3ccc(C(F)(F)F)cc3)c(=O)[nH]2)c1)C(F)(F)F [Example-99, N-(4-Chloro-3-(5-oxo-1-(4-(trifluoromethyl)phenyl)-4,5-dihydro-1H-1,2,4-triazol-3-yl)benzyl)-2,2,2-trifluoroacetamide] |
| 99.7 | 97.1 | < 50 | Cc1cc(-n2nc(-c3cc(CNC(=O)C(C)C)ccc3Cl)[nH]c2=O)ccc1Cl [Example-155, N-(4-Chloro-3-(1-(4-chloro-3-methylphenyl)-4,5-dihydro-5-oxo-1H-1,2,4-triazol-3-yl)benzyl)isobutyramide] |
| 96.6 | 97.8 | 50 to 100 | CC(C)(C)C(=O)NCc1cc(-n2nc(-c3ccc(C#CC4CC4)cc3)[nH]c2=O)c(Cl)cc1Cl [Example-130, N-(2,4-Dichloro-5-(3-(4-(2-cyclopropylethynyl)phenyl)-4,5-dihydro-5-oxo-1,2,4-triazol-1-yl)benzyl)pivalamide] |
| 28 | 89 |  | CC1(C)CCC(n2nc(-c3cc(CNC(=O)C(F)(F)F)c(F)cc3Cl)[nH]c2=O)CC1 [Example-124, N-(4-chloro-2-fluoro-5-(4,5-dihydro-1-(4,4-dimethylcyclohexyl)-5-oxo-1H-1,2,4-triazol-3-yl)benzyl)-2,2,2-trifluoroacetamide] |
| 95.6 | 95.4 | < 50 | COc1cc(-c2nn(-c3c(Cl)cccc3Cl)c(=O)[nH]2)ccc1C(=O)Nc1cccc(C(F)(F)F)c1 [Example-76, 4-(1-(2,6-Dichlorophenyl)-5-oxo-4,5-dihydro-1H-1,2,4-triazol-3-yl)-2-methoxy-N-(3-(trifluoromethyl)phenyl)benzamide] |
| 72.7 | 96.3 |  | COc1cc(-n2nc(-c3c(Cl)cccc3Cl)[nH]c2=O)ccc1C(=O)Nc1ccc(S(C)(=O)=O)cc1 [Example-67, 4-(3-(2,6-Dichlorophenyl)-5-oxo-4,5-dihydro-1H-1,2,4-triazol-1-yl)-2-methoxy-N-(4-(methylsulfonyl)phenyl)benzamide] |

— US10821100B2, “Triazolone compounds as mPGES-1 inhibitors” (Glenmark Pharmaceuticals S.A., priority 2012, dated 2020)
